From ChEMBL document CHEMBL1201862, “PubChem BioAssay data set” (2004)
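Exposure lasted 48 hours, with cells grown in 96-well plates and compounds tested at five concentrations. GI50 marks 50% less growth.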 Active and inactive are the calls of the source. Cut-off read from the data, not from the text of the source: active = GI50 up to about 1.1 µM and inactive = higher.

What was measured:
Test in all cases: growth of human tumour cells (NCI), 48 h
[1] = test system: A549
[2] = test system: COLO 205
[3] = test system: DU-145
[4] = test system: EKVX
[5] = test system: HCT-15
[6] = test system: HOP-62
[7] = test system: KM12
[8] = test system: M14
[9] = test system: MOLT-4
[10] = test system: Malme-3M
[11] = test system: NCI-H460
[12] = test system: NCI/ADR-RES
[13] = test system: OVCAR-3
[14] = test system: PC-3
[15] = test system: RPMI-8226
[16] = test system: RXF 393
[17] = test system: SN12C
[18] = test system: TK-10
[19] = test system: UACC-257

Structure (SMILES) | GI50 [1] | GI50 [2] | GI50 [3] | GI50 [4] | GI50 [5] [µM] | GI50 [6] | GI50 [7] | GI50 [8] | GI50 [9] | GI50 [10] | GI50 [11] | GI50 [12] | GI50 [13] | GI50 [14] | GI50 [15] | GI50 [16] | GI50 [17] | GI50 [18] | GI50 [19]
COC1(c2ccccc2)N=C(S)NN=C1c1ccccc1 (configuration not stated) | 45.2 µM (inactive) | 21.9 µM (inactive) | 32.8 µM (inactive) | 89.9 µM (inactive) | 24.3 | 44.8 µM (inactive) | 39.8 µM (inactive) | 27.5 µM (inactive) | 35.4 µM (inactive) | 60.4 µM (inactive) | 27.5 µM (inactive) | 19.1 µM (inactive) | 30.9 µM (inactive) | 31.4 µM (inactive) | 38.9 µM (inactive) | 63.4 µM (inactive) | 21 µM (inactive) | 48.2 µM (inactive) | 49.1 µM (inactive)
S=C(CSc1ccccc1)Nc1cccc2ccccc12 | 42 µM (inactive) | 16.4 µM (inactive) | > 100 µM (inactive) | 58.9 µM (inactive) | 48.4 | 77.3 µM (inactive) | 40.8 µM (inactive) | 54.2 µM (inactive) | 21.6 µM (inactive) | 40.3 µM (inactive) | 29.9 µM (inactive) | 46 µM (inactive) | 20.8 µM (inactive) | 35.6 µM (inactive) | 35.6 µM (inactive) | > 100 µM (inactive) | 45.7 µM (inactive) | 36.3 µM (inactive) | 22.3 µM (inactive)
CN(C)CCCNc1c2c(nc3ccc(Cl)cc13)CCCC2 | 16.8 µM (inactive) | 8.51 µM (inactive) | 13.9 µM (inactive) | 14.9 µM (inactive) | 13.3 | 12.9 µM (inactive) | 13.6 µM (inactive) | 13.8 µM (inactive) | 4.12 µM (inactive) | 15.6 µM (inactive) | 9.93 µM (inactive) | 18.1 µM (inactive) | 14.8 µM (inactive) | 13.7 µM (inactive) | 7.59 µM (inactive) | 12.9 µM (inactive) | 11.8 µM (inactive) | 15.2 µM (inactive) | 16.3 µM (inactive)
CCOC(=O)c1c(-c2ccccc2)oc(=O)c(Cc2cccc3cccnc23)c1-c1ccccc1 | > 10 µM (inactive) | > 10 µM (inactive) | > 10 µM (inactive) | > 10 µM (inactive) | > 10 | > 10 µM (inactive) | > 10 µM (inactive) | > 10 µM (inactive) | > 10 µM (inactive) | > 10 µM (inactive) | > 10 µM (inactive) | > 10 µM (inactive) | > 10 µM (inactive) | 9.55 µM (inactive) | > 10 µM (inactive) | > 10 µM (inactive) | > 10 µM (inactive) | > 10 µM (inactive) | > 10 µM (inactive)
C[N+]1(c2ccccc2)C=C(c2ccccc2)SC1=S (configuration not stated) | > 100 µM (inactive) | 23.1 µM (inactive) | 3.9 µM (inactive) | 18.1 µM (inactive) | > 100 | > 100 µM (inactive) | > 100 µM (inactive) | > 100 µM (inactive) | – | 73.1 µM (inactive) | 95.7 µM (inactive) | > 100 µM (inactive) | 8.22 µM (inactive) | > 100 µM (inactive) | 21 µM (inactive) | 1.87 µM (inactive) | > 100 µM (inactive) | > 100 µM (inactive) | 48.9 µM (inactive)
Cc1cc(C)nc(NS(=O)(=O)c2ccc(NC(=O)c3ccc4nc5ccccc5c(Nc5ccc(S(N)(=O)=O)cc5)c4c3)cc2)n1 | > 100 µM (inactive) | > 100 µM (inactive) | > 100 µM (inactive) | > 100 µM (inactive) | > 100 | > 100 µM (inactive) | 65.8 µM (inactive) | > 100 µM (inactive) | 50.6 µM (inactive) | 93.3 µM (inactive) | > 100 µM (inactive) | > 100 µM (inactive) | 48.5 µM (inactive) | > 100 µM (inactive) | 64.1 µM (inactive) | 33 µM (inactive) | > 100 µM (inactive) | > 100 µM (inactive) | > 100 µM (inactive)
OC(CC(O)(C(F)(F)F)C(F)(F)F)C(O)c1ccco1 (configuration not stated) | > 10 µM (inactive) | > 10 µM (inactive) | > 10 µM (inactive) | > 10 µM (inactive) | > 10 | > 10 µM (inactive) | > 10 µM (inactive) | > 10 µM (inactive) | > 10 µM (inactive) | > 10 µM (inactive) | > 10 µM (inactive) | > 10 µM (inactive) | > 10 µM (inactive) | > 10 µM (inactive) | > 10 µM (inactive) | > 10 µM (inactive) | > 10 µM (inactive) | > 10 µM (inactive) | > 10 µM (inactive)
COC(=O)C(Cc1ccccc1)NC(=O)c1ccc(CNC(=S)NCc2cccc(CNC(=S)NCc3ccccc3)c2)cc1 (configuration not stated) | > 34.5 µM (inactive) | > 32.1 µM (inactive) | > 35.9 µM (inactive) | > 32.2 µM (inactive) | > 35.2 | 28.9 µM (inactive) | > 29 µM (inactive) | > 36 µM (inactive) | > 34 µM (inactive) | > 34.9 µM (inactive) | > 36.5 µM (inactive) | > 32.7 µM (inactive) | 27.9 µM (inactive) | > 32 µM (inactive) | > 29.1 µM (inactive) | 20 µM (inactive) | > 31.8 µM (inactive) | > 35.8 µM (inactive) | > 35.8 µM (inactive)
Cc1cn(S(=O)(=O)c2ccccc2)c2c(OCc3ccccc3)cc([N+](=O)[O-])cc12 | 41.5 µM (inactive) | > 100 µM (inactive) | > 100 µM (inactive) | 35.7 µM (inactive) | > 100 | > 10 µM (inactive) | > 100 µM (inactive) | > 100 µM (inactive) | > 100 µM (inactive) | 17.5 µM (inactive) | > 100 µM (inactive) | > 100 µM (inactive) | > 100 µM (inactive) | 32.9 µM (inactive) | > 100 µM (inactive) | 25.1 µM (inactive) | 57.7 µM (inactive) | > 100 µM (inactive) | > 100 µM (inactive)
O=C(NC12CC3CC(CC(C3)C1)C2)n1cnc2c(Cl)ncnc21 | 38.4 µM (inactive) | 17 µM (inactive) | 24.3 µM (inactive) | 25.8 µM (inactive) | 35 | 37.5 µM (inactive) | > 100 µM (inactive) | 23.1 µM (inactive) | 15 µM (inactive) | > 100 µM (inactive) | 28 µM (inactive) | > 100 µM (inactive) | 22.7 µM (inactive) | 26.4 µM (inactive) | 40.7 µM (inactive) | 35.2 µM (inactive) | > 100 µM (inactive) | > 100 µM (inactive) | 35.8 µM (inactive)
CC(C)C12CCC3(CCC4C(C)(C(=O)O)CCCC4(C)C3C1)C(CN)C2 (configuration not stated) | 30.1 µM (inactive) | 17.7 µM (inactive) | 38.6 µM (inactive) | 32.2 µM (inactive) | 31.9 | 74.6 µM (inactive) | 35.8 µM (inactive) | 30.4 µM (inactive) | – | 45 µM (inactive) | 21.5 µM (inactive) | 37.6 µM (inactive) | 40.1 µM (inactive) | 45.6 µM (inactive) | 19.3 µM (inactive) | 35.2 µM (inactive) | 20.8 µM (inactive) | 37.7 µM (inactive) | 40.1 µM (inactive)
Nc1nc(=O)c(/N=N/c2ccccc2)c(C(=O)O)[nH]1 | 84.5 µM (inactive) | > 100 µM (inactive) | 98.6 µM (inactive) | 23.3 µM (inactive) | 75.2 | 55.3 µM (inactive) | > 100 µM (inactive) | > 100 µM (inactive) | 46.3 µM (inactive) | 85.3 µM (inactive) | 45.7 µM (inactive) | > 100 µM (inactive) | 98.4 µM (inactive) | > 100 µM (inactive) | 63.8 µM (inactive) | > 100 µM (inactive) | 96.6 µM (inactive) | > 100 µM (inactive) | 62.8 µM (inactive)
O=C(Nc1ccccc1)c1cc(S(=O)(=O)Nc2n[nH]c(=O)n2-c2ccccc2)c(S)cc1Cl | > 100 µM (inactive) | > 100 µM (inactive) | > 100 µM (inactive) | > 100 µM (inactive) | > 100 | – | > 100 µM (inactive) | > 100 µM (inactive) | > 100 µM (inactive) | > 100 µM (inactive) | > 100 µM (inactive) | > 100 µM (inactive) | > 100 µM (inactive) | > 100 µM (inactive) | > 100 µM (inactive) | > 100 µM (inactive) | > 100 µM (inactive) | > 100 µM (inactive) | > 100 µM (inactive)
C=C(CN1CC2C[C@](C(=O)OC)(c3cc4ccccc4[nH]3)C1C(OC)C2OC)S(=O)(=O)c1ccccc1 (some centres not stated) | 3.13 µM (inactive) | 2.54 µM (inactive) | 4 µM (inactive) | 3.3 µM (inactive) | 3.08 | 4.78 µM (inactive) | 2.88 µM (inactive) | 2.91 µM (inactive) | 0.53 µM (active) | 0.43 µM (active) | 3.07 µM (inactive) | 4.8 µM (inactive) | 3.35 µM (inactive) | 3.19 µM (inactive) | 0.245 µM (active) | 3.19 µM (inactive) | 3.27 µM (inactive) | 4.85 µM (inactive) | 2.65 µM (inactive)
CC(OP(=O)(O)O)C(N)C(=O)O (configuration not stated) | > 100 µM (inactive) | > 100 µM (inactive) | > 100 µM (inactive) | > 100 µM (inactive) | > 100 | > 100 µM (inactive) | > 100 µM (inactive) | > 100 µM (inactive) | > 100 µM (inactive) | > 100 µM (inactive) | > 100 µM (inactive) | > 100 µM (inactive) | > 100 µM (inactive) | > 100 µM (inactive) | > 100 µM (inactive) | > 100 µM (inactive) | > 100 µM (inactive) | > 100 µM (inactive) | > 100 µM (inactive)
